PubChem BioAssay AID1745844 (Carcinogenic Potency Database (CPDB), 2022)
Calls of active or inactive are those of the source. How the calls were made is not given here.

System: rodent lifetime carcinogenesis bioassay, tumor incidence TD50
Test: carcinogenic potency in animals, long-term in vivo studies, CPDB compilation (AID 1745844)

`CC(=O)[O][Sn]([c]1ccccc1)([c]1ccccc1)[c]1ccccc1` was tested, and the TD50 (mouse, strain B6AKF1, females, oral dosing, site: any site (literature study), lesion: several types, types named in the paper, dosed 76 weeks, study length 76 weeks) was 437 mg/kg/day (inactive), the carcinogen call (mouse, strain B6AKF1, females, oral dosing, site: liver, lesion: hepatoma, dosed 76 weeks, study length 76 weeks) was “negative (inactive)” and the TD50 (mouse, strain B6AKF1, females, oral dosing, site: lung, lesion: adenoma, dosed 76 weeks, study length 76 weeks) was 964 mg/kg/day (inactive). For the same compound, the TD50 (mouse, strain B6AKF1, males, oral dosing, site: any site (literature study), lesion: several types, types named in the paper, dosed 76 weeks, study length 76 weeks) was 307 mg/kg/day (inactive), the TD50 (mouse, strain B6AKF1, males, oral dosing, site: liver, lesion: hepatoma, dosed 76 weeks, study length 76 weeks) was 241 mg/kg/day (inactive) and the carcinogen call (mouse, strain B6AKF1, males, oral dosing, site: lung, lesion: adenoma, dosed 76 weeks, study length 76 weeks) was “negative (inactive)”. The TD50 (mouse, strain B6C3F1, females, oral dosing, site: any site (literature study), lesion: several types, types named in the paper, dosed 76 weeks, study length 76 weeks) was 284 mg/kg/day (inactive), the TD50 (mouse, strain B6C3F1, females, oral dosing, site: liver, lesion: hepatoma, dosed 76 weeks, study length 76 weeks) was 909 mg/kg/day (inactive) and the TD50 (mouse, strain B6C3F1, females, oral dosing, site: lung, lesion: adenoma, dosed 76 weeks, study length 76 weeks) was 440 mg/kg/day (inactive). The TD50 (mouse, strain B6C3F1, males, oral dosing, site: any site (literature study), lesion: several types, types named in the paper, dosed 76 weeks, study length 76 weeks) was 117 mg/kg/day (inactive), the TD50 (mouse, strain B6C3F1, males, oral dosing, site: liver, lesion: hepatoma, dosed 76 weeks, study length 76 weeks) was 407 mg/kg/day (inactive) and the TD50 (mouse, strain B6C3F1, males, oral dosing, site: lung, lesion: adenoma, dosed 76 weeks, study length 76 weeks) was 262 mg/kg/day (inactive).
`Cc1ccc2c(-c3ccccc3)nc(=O)n(C(C)C)c2c1` was tested, and the carcinogen call (mouse, strain Charles River CD1, females, in feed, site: liver, lesion: hemangioendothelial sarcoma, dosed 86 weeks, study length 86 weeks) was “negative (inactive)”, the TD50 (mouse, strain Charles River CD1, females, in feed, site: liver, lesion: hemangioma, dosed 86 weeks, study length 86 weeks) was 48700 mg/kg/day (inactive) and the carcinogen call (mouse, strain Charles River CD1, females, in feed, site: liver, lesion: hepatocellular carcinoma, dosed 86 weeks, study length 86 weeks) was “negative (inactive)”. The carcinogen call (mouse, strain Charles River CD1, females, in feed, site: lung, lesion: alveolar/bronchiolar adenoma, dosed 86 weeks, study length 86 weeks) was “negative (inactive)”, the carcinogen call (mouse, strain Charles River CD1, females, in feed, site: lung, lesion: alveolar/bronchiolar carcinoma, dosed 86 weeks, study length 86 weeks) was “negative (inactive)” and the TD50 (mouse, strain Charles River CD1, males, in feed, site: liver, lesion: hemangioma, dosed 86 weeks, study length 86 weeks) was 14000 mg/kg/day (inactive). The TD50 (mouse, strain Charles River CD1, males, in feed, site: liver, lesion: hepatocellular carcinoma, dosed 86 weeks, study length 86 weeks) was 4350 mg/kg/day (inactive), the TD50 (mouse, strain Charles River CD1, males, in feed, site: lung, lesion: alveolar/bronchiolar adenoma, dosed 86 weeks, study length 86 weeks) was 5450 mg/kg/day (inactive) and the carcinogen call (mouse, strain Charles River CD1, males, in feed, site: lung, lesion: alveolar/bronchiolar carcinoma, dosed 86 weeks, study length 86 weeks) was “negative (inactive)”.
In the case of `CN(N)C=O`, the TD50 (hamster, strain Syrian Golden, females, in drinking water, site: all sites, lesion: histiocytoma, malignant, dosed 102 weeks, study length 102 weeks) is reported as 4.71 mg/kg/day, the TD50 (hamster, strain Syrian Golden, females, in drinking water, site: any site (literature study), lesion: several types, types named in the paper, dosed 102 weeks, study length 102 weeks) is reported as 6.04 mg/kg/day and the TD50 (hamster, strain Syrian Golden, females, in drinking water, site: gall bladder, lesion: several types, types named in the paper, dosed 102 weeks, study length 102 weeks) is reported as 29.1 mg/kg/day. The TD50 (hamster, strain Syrian Golden, females, in drinking water, site: liver, lesion: hepatoma, dosed 102 weeks, study length 102 weeks) was 28.3 mg/kg/day, the TD50 (hamster, strain Syrian Golden, females, in drinking water, site: liver, lesion: liver-cell carcinoma, dosed 102 weeks, study length 102 weeks) was 25.1 mg/kg/day and the TD50 (hamster, strain Syrian Golden, females, in drinking water, site: liver, lesion: several types, types named in the paper, dosed 102 weeks, study length 102 weeks) was 11.3 mg/kg/day. It also gave a TD50 (hamster, strain Syrian Golden, males, in drinking water, site: all sites, lesion: histiocytoma, malignant, dosed 102 weeks, study length 102 weeks) of 12.7 mg/kg/day, a TD50 (hamster, strain Syrian Golden, males, in drinking water, site: any site (literature study), lesion: several types, types named in the paper, dosed 102 weeks, study length 102 weeks) of 4.89 mg/kg/day and a TD50 (hamster, strain Syrian Golden, males, in drinking water, site: bile duct, lesion: several types, types named in the paper, dosed 102 weeks, study length 102 weeks) of 19.7 mg/kg/day. It also gave a TD50 (hamster, strain Syrian Golden, males, in drinking water, site: gall bladder, lesion: papillary adenoma, dosed 102 weeks, study length 102 weeks) of 42.5 mg/kg/day, a TD50 (hamster, strain Syrian Golden, males, in drinking water, site: gall bladder, lesion: several types, types named in the paper, dosed 102 weeks, study length 102 weeks) of 25.3 mg/kg/day and a TD50 (hamster, strain Syrian Golden, males, in drinking water, site: liver, lesion: hepatoma, dosed 102 weeks, study length 102 weeks) of 13.3 mg/kg/day. It also gave a TD50 (hamster, strain Syrian Golden, males, in drinking water, site: liver, lesion: liver-cell carcinoma, dosed 102 weeks, study length 102 weeks) of 30 mg/kg/day, a TD50 (hamster, strain Syrian Golden, males, in drinking water, site: liver, lesion: several types, types named in the paper, dosed 102 weeks, study length 102 weeks) of 7.55 mg/kg/day and a TD50 (mouse, strain Swiss albino, females, in drinking water, site: blood vessels, lesion: several types, types named in the paper, dosed 92 weeks, study length 92 weeks) of 12.2 mg/kg/day. The TD50 (mouse, strain Swiss albino, females, in drinking water, site: blood vessels, lesion: several types, types named in the paper, dosed 99 weeks, study length 100 weeks) was 6.04 mg/kg/day, the TD50 (mouse, strain Swiss albino, females, in drinking water, site: gall bladder, lesion: adenoma, dosed 65 weeks, study length 73 weeks) was 31.5 mg/kg/day and the TD50 (mouse, strain Swiss albino, females, in drinking water, site: gall bladder, lesion: adenoma, dosed 92 weeks, study length 92 weeks) was 39.7 mg/kg/day. For the same compound, the TD50 (mouse, strain Swiss albino, females, in drinking water, site: gall bladder, lesion: several types, types named in the paper, dosed 92 weeks, study length 92 weeks) was 31.3 mg/kg/day, the TD50 (mouse, strain Swiss albino, females, in drinking water, site: gall bladder, lesion: several types, types named in the paper, dosed 99 weeks, study length 100 weeks) was 57.9 mg/kg/day and the TD50 (mouse, strain Swiss albino, females, in drinking water, site: liver, lesion: angioma, dosed 97 weeks, study length 102 weeks) was 23.8 mg/kg/day (inactive). It also gave a TD50 (mouse, strain Swiss albino, females, in drinking water, site: liver, lesion: hepatoma, benign, dosed 92 weeks, study length 92 weeks) of 17.5 mg/kg/day, a TD50 (mouse, strain Swiss albino, females, in drinking water, site: liver, lesion: hepatoma, benign, dosed 99 weeks, study length 100 weeks) of 24.7 mg/kg/day and a TD50 (mouse, strain Swiss albino, females, in drinking water, site: liver, lesion: hepatoma, dosed 65 weeks, study length 73 weeks) of 19.5 mg/kg/day. For the same compound, the TD50 (mouse, strain Swiss albino, females, in drinking water, site: liver, lesion: hepatoma, dosed 97 weeks, study length 102 weeks) was 9.23 mg/kg/day (inactive), the TD50 (mouse, strain Swiss albino, females, in drinking water, site: liver, lesion: liver-cell carcinoma, dosed 65 weeks, study length 73 weeks) was 19.9 mg/kg/day and the TD50 (mouse, strain Swiss albino, females, in drinking water, site: liver, lesion: liver-cell carcinoma, dosed 92 weeks, study length 92 weeks) was 22.4 mg/kg/day. For the same compound, the TD50 (mouse, strain Swiss albino, females, in drinking water, site: liver, lesion: several types, types named in the paper, dosed 65 weeks, study length 73 weeks) was 10.4 mg/kg/day, the TD50 (mouse, strain Swiss albino, females, in drinking water, site: liver, lesion: several types, types named in the paper, dosed 92 weeks, study length 92 weeks) was 8.66 mg/kg/day and the TD50 (mouse, strain Swiss albino, females, in drinking water, site: lung, lesion: adenocarcinoma, dosed 97 weeks, study length 102 weeks) was 1.12 mg/kg/day. It also gave a TD50 (mouse, strain Swiss albino, females, in drinking water, site: lung, lesion: adenoma, dosed 97 weeks, study length 102 weeks) of 1.5 mg/kg/day, a TD50 (mouse, strain Swiss albino, females, in drinking water, site: lung, lesion: several types, types named in the paper, dosed 65 weeks, study length 73 weeks) of 6.44 mg/kg/day and a TD50 (mouse, strain Swiss albino, females, in drinking water, site: lung, lesion: several types, types named in the paper, dosed 92 weeks, study length 92 weeks) of 2.16 mg/kg/day. It also gave a TD50 (mouse, strain Swiss albino, females, in drinking water, site: lung, lesion: several types, types named in the paper, dosed 97 weeks, study length 102 weeks) of 0.745 mg/kg/day, a TD50 (mouse, strain Swiss albino, females, in drinking water, site: lung, lesion: several types, types named in the paper, dosed 99 weeks, study length 100 weeks) of 0.921 mg/kg/day and a TD50 (mouse, strain Swiss albino, males, in drinking water, site: bile duct, lesion: cholangioma, dosed 82 weeks, study length 82 weeks) of 12.4 mg/kg/day. For the same compound, the TD50 (mouse, strain Swiss albino, males, in drinking water, site: bile duct, lesion: several types, types named in the paper, dosed 65 weeks, study length 72 weeks) was 36.2 mg/kg/day, the TD50 (mouse, strain Swiss albino, males, in drinking water, site: blood vessels, lesion: several types, types named in the paper, dosed 96 weeks, study length 100 weeks) was 3.47 mg/kg/day and the TD50 (mouse, strain Swiss albino, males, in drinking water, site: forestomach, lesion: squamous-cell papilloma, dosed 97 weeks, study length 102 weeks) was 11.2 mg/kg/day (inactive). The TD50 (mouse, strain Swiss albino, males, in drinking water, site: gall bladder, lesion: adenoma, dosed 65 weeks, study length 72 weeks) was 38 mg/kg/day, the TD50 (mouse, strain Swiss albino, males, in drinking water, site: gall bladder, lesion: adenoma, dosed 82 weeks, study length 82 weeks) was 15.2 mg/kg/day and the TD50 (mouse, strain Swiss albino, males, in drinking water, site: gall bladder, lesion: adenoma, dosed 96 weeks, study length 100 weeks) was 9.88 mg/kg/day. For the same compound, the TD50 (mouse, strain Swiss albino, males, in drinking water, site: gall bladder, lesion: several types, types named in the paper, dosed 96 weeks, study length 100 weeks) was 9.1 mg/kg/day, the TD50 (mouse, strain Swiss albino, males, in drinking water, site: liver, lesion: several types, types named in the paper, dosed 65 weeks, study length 72 weeks) was 16.8 mg/kg/day and the TD50 (mouse, strain Swiss albino, males, in drinking water, site: liver, lesion: several types, types named in the paper, dosed 82 weeks, study length 82 weeks) was 1.03 mg/kg/day. It also gave a TD50 (mouse, strain Swiss albino, males, in drinking water, site: liver, lesion: several types, types named in the paper, dosed 96 weeks, study length 100 weeks) of 5.47 mg/kg/day, a TD50 (mouse, strain Swiss albino, males, in drinking water, site: lung, lesion: adenocarcinoma, dosed 97 weeks, study length 102 weeks) of 2.48 mg/kg/day and a TD50 (mouse, strain Swiss albino, males, in drinking water, site: lung, lesion: adenoma, dosed 97 weeks, study length 102 weeks) of 1.3 mg/kg/day. It also gave a TD50 (mouse, strain Swiss albino, males, in drinking water, site: lung, lesion: several types, types named in the paper, dosed 65 weeks, study length 72 weeks) of 14.2 mg/kg/day, a TD50 (mouse, strain Swiss albino, males, in drinking water, site: lung, lesion: several types, types named in the paper, dosed 82 weeks, study length 82 weeks) of 1.87 mg/kg/day and a TD50 (mouse, strain Swiss albino, males, in drinking water, site: lung, lesion: several types, types named in the paper, dosed 96 weeks, study length 100 weeks) of 1.72 mg/kg/day. The TD50 (mouse, strain Swiss albino, males, in drinking water, site: lung, lesion: several types, types named in the paper, dosed 97 weeks, study length 102 weeks) was 0.865 mg/kg/day, the TD50 (mouse, strain Swiss albino, males, in drinking water, site: seminal vesicle, lesion: adenoma, dosed 82 weeks, study length 82 weeks) was 20.7 mg/kg/day (inactive) and the TD50 (mouse, strain Swiss albino, males, in drinking water, site: stomach, glandular, lesion: polypoid adenoma, dosed 97 weeks, study length 102 weeks) was 3.43 mg/kg/day (inactive). The TD50 (mouse, strain Swiss albino, males, in drinking water, site: subcutaneous tissue, lesion: fibrosarcoma, dosed 97 weeks, study length 102 weeks) was 2.6 mg/kg/day (inactive).
